What all share (assay type): cell-based
One data set has as its system HRV B14. As to the kind of experiment: HRV B14 CPE inhibition assay. The following applies: Human rhinovirus sp.; HRV B14, cytopathic effect inhibition. As for the experimental part:
(§1) Bioactivity of the Compounds of the Invention was Determined Using the Following Methods. Determination of Drug Efficacy Against Picornaviruses Using Cytopathic Effect (CPE) Inhibition Assay
(§2) In the assay, HeLa (human cervical cancer cells), MRC-5 (human fetal lung fibroblast cells), and RD cells (derived from human rhabdomyosarcoma) were employed. For comparison, ribavirin (Riv), Pleconaril (pleco), and […] (BTA) were used as controls. Reagents were dissolved at a concentration of 10-40 mg/ml in 100% dimethyl sulfoxide (DMSO). Water-soluble reagents were dissolved in PBS (−) solution and stored at −20° C. On the day of the experiment, they were used in 3 fold to 5 fold concentrations in such a manner that the concentration of dimethyl sulfoxide in each well was between 0.5% and 1%.
(§3) Pharmaceutical efficacy was determined using a virus-induced cytopathic effect (CPE) inhibition assay. In this regard, after cells suitable for viruses were grown in 96-well plates, dilutions of viruses in DME supplemented with 2% FBS (DME/2% FBS) or MEM supplemented with 2% FBS (MEM/2% FBS) were inoculated in an amount of […] with a concentration corresponding to 100 CCID50 (50% cell culture infective dose) into each well of the plates, and incubated for 30 min-1 hr at 33° C. or 37° C. to allow the viruses to adsorb onto the cells. The culture medium was removed before aliquots of drug dilutions with various concentrations were added in an amount of 100 μl to each well. While HRV (human rhinovirus) was grown at 33° C., the other viruses were incubated in a 37° C. CO2 incubator for 2-3 days. Alternatively, the cells were cultured for 2-3 days without removal of the medium after they were added with 50 μl of each drug dilution having a 2-fold higher concentration and then with 50 μl of the virus dilution. Viruses were incubated in host HeLa cells at 37° C. for 2-3 days in DME/2% or MEM/2% FBS.
(§4) For HeLa cells, the drugs were measured for EC50 (50% maximal effective concentration), which is the concentration of a drug inducing a response halfway between the baseline and maximum, using an MTT assay. With regard to RD and MRC-5 cells, CPE was determined using FDA (Fluorescein diacetate) or MTT. In order to determine the effect of drug toxicity on efficacy results, at the time of inoculation with the virus, mock-infection was also included. A virus-free medium was added to a cell culture, which was then subjected to the same treatment as the mock-infected cells inoculated with the virus. That is, the medium was removed after one hour of incubation, and dilutions of drugs in the medium were added once more. Following incubation for 2-3 days, the cells were observed under a microscope and the drugs were determined for CC50 (50% cytotoxic concentration) at which 50% of the cells were killed, using an MTT assay in which counts of viable cells in mock-infected wells containing drugs were compared to those of viable cells in control wells containing no drugs. In an FDA hydrolysis assay, FDA was added to each well after removal of the medium, and incubated for 20-30 min before fluorescence intensity was measured using a spectrofluorometer to determine CPE in the same manner as in MTT.
(§5) In addition, antiviral effects can be calculated using Mathematical Formula 2 below: Antiviral Effect=[A(Drug/Virus)−A(Virus Control)/A(Cell control)−A(Virus Control)]
(§6) If the survival rate is 100%, its antiviral effect is 100% whereas if the survival rate is 0%, its antiviral effect is none. […]
(§7) Specifically, cells grown to confluence in 96-well plates were infected with 100 50% cell culture infected doses (CCID50) of virus. After an adsorption period of 2 hrs at 37° C., the virus was removed and serial dilutions of the compounds were added. […] After removal of the medium, 90 μl of a culture medium and 10 μl of MTS-phenazine methosulfate (Promega, Leiden, The Netherlands) were added to each well. […]

The subject of a further data set is HRV A16. The data set can be described thus: HRV A16 CPE inhibition assay. The following applies: Human rhinovirus sp.; HRV A16, cytopathic effect inhibition. As for the experimental part:
as §1, §2, §3, §4, §5, §6, §7

For a further data set, the system named is HRV A1B. The data set can be described thus: HRV A1B CPE inhibition assay. The following applies: Human rhinovirus sp., cytopathic effect inhibition, read-out: HRV A1B_CPE (EC50 μM). As for the experimental part:
as §1, §2, §3, §4, §5, §6, §7
For orientation: Cytopathic effects are the visible damage that an infection or toxin causes in cultured cells.

Another data set deals with HRV A29. The data set can be described thus: HRV A29 CPE inhibition assay. The following applies: Human rhinovirus sp.; HRV A29, cytopathic effect inhibition. As for the experimental part:
as §1, §2, §3, §4, §5, §6, §7

The nature of data set [1]: Cytotoxicity (CC50) in mock-infected cells, MTT assay. The following applies: human, HeLa cells (mock-infected), 50% cytotoxic concentration, read-out: CYTOTOX (CC50 μM). As for the experimental part: as §4
That is, the survival rate (% survival) of mock-infected cells for cytotoxicity measurement was calculated using the Mathematical Formula 1 below: Cell Drug=Survival by [A(Drug)−A(Background solution)/A(Cell control)−A(Background×100% Solution)]
While 100% cell survival means no cytotoxicity of the drug, the highest cytotoxicity is reflected by 0% cell survival. The 50% cytotoxic concentration was defined as the concentration required to reduce the cell number by 50%. This concentration of the drug is represented as CC50. Higher values mean lower cytotoxicity. […]
In Mathematical Formulae 3 and 4 above, • OD (CC) represents the OD of the background cell culture that is neither induced by a virus nor treated by chemical, • OD (VC) represents the OD of the control cell culture that is induced by a virus but not treated by chemical, • OD (Virus+Compound) represents the OD of the cell culture infected by a virus that has been treated with a concentrated compound, • OD (Compound) represents the OD of the cell culture that has been treated with a concentrated compound only, and • OD (Blank) represents the OD of the well to which only the cell culture has been added.
The effective concentration (EC50) represents the concentration of a drug at which 50% of cells are allowed to survive by CPE of an induced virus, and the cytotoxicity concentration (CC50) represents the concentration of a drug at which a compound has killed 50% of cells, and they were calculated by the logarithmic interpolation.
In general terms: Tetrazolium assays rely on reduction of a dye to a coloured formazan, in cell work by metabolically active cells.

The next data set relates to C15_C3 REPLICON
The data set can be described thus: C15_C3 replicon assay. For orientation: Replicon systems follow genome replication, usually without infectious particles.

Turning to `Cc1c(C(=O)N[C@]23C(=O)c4c(N)cccc4[C@@]2(O)Oc2cc([C@H](C)C4CC4)ccc23)[nH]c(=O)n1C` [Example 22, N-((4bR,9bR)-1-amino-7-((R)-1-cyclopropylethyl)-4b-hydroxy-10-oxo-4b,10-dihydro-9bH-indeno[1,2-b]benzofuran-9b-yl)-1,5-dimethyl-2-oxo-2,3-dihydro-1H-imidazole-4-carboxamide], the EC50 was 0.016 µM with HRV B14; 0.063 µM in the data set with HRV A16; 0.041 µM with HRV A1B; 0.023 µM in the data set with HRV A29; 1.89 µM with C15_C3 REPLICON. Further, the CC50 in data set [1] amounted to 34.9 µM.
With `Cc1cc(S(C)(=O)=O)[nH]c1C(=O)NC12C(=O)c3c(N)cccc3C1(O)Oc1cc(C3C[C@H]3C)ccc12` (stereo in doubt) [Example 21, N-(1-amino-4b-hydroxy-7-((1S,2R)-2-methylcyclopropyl)-10-oxo-4b,10-dihydro-9bH-indeno[1,2-b]benzofuran-9b-yl)-3-methyl-5-(methylsulfonyl)-1H-pyrrole-2-carboxamide], the EC50 in the data set with HRV B14 came to 0.016 µM; with HRV A16, 0.026 µM; in the data set with HRV A1B, 0.07 µM; with HRV A29, 0.074 µM; with C15_C3 REPLICON, 2.91 µM. In addition, the CC50 in data set [1] was 37.3 µM.
On to `C[C@@H](c1ccc2c(c1)O[C@]1(O)c3cccc(N)c3C(=O)[C@]21NC(=O)c1cccc(O)n1)C1CC1` [Example 8, N-((4bR,9bR)-1-amino-7-((R)-1-cyclopropylethyl)-4b-hydroxy-10-oxo-4b,10-dihydro-9bH-indeno[1,2-b]benzofuran-9b-yl)-6-hydroxypicolinamide], for which the EC50 in the data set on HRV B14 is 0.016 µM; in the data set with HRV A16 it was 0.068 µM; with HRV A1B, 0.031 µM; in the data set on HRV A29, 0.035 µM; with C15_C3 REPLICON it was 5.33 µM. In addition, in data set [1], the half-maximal cytotoxic concentration (CC50) came out at 35 µM.
With `Cc1c(C(=O)N[C@]23C(=O)c4c(N)cccc4[C@@]2(O)Oc2cc([C@@H](C)C4CC4)ccc23)[nH]c(=O)n1C` [Example 18, N-((4bR,9bR)-1-amino-7-((S)-1-cyclopropylethyl)-4b-hydroxy-10-oxo-4b,10-dihydro-9bH-indeno[1,2-b]benzofuran-9b-yl)-1,5-dimethyl-2-oxo-2,3-dihydro-1H-imidazole-4-carboxamide], the EC50 in the data set on HRV A16 amounted to 0.05 µM; in the data set with HRV A1B, 0.018 µM; with HRV A29, 0.016 µM; in the data set with C15_C3 REPLICON it was 1.65 µM. For the same compound, in data set [1], the CC50 is 31.8 µM.
As for `Cc1cc(S(=O)(=O)N2CCN(C)CC2)[nH]c1C(=O)NC12C(=O)c3c(N)cccc3C1(O)Oc1cc([C@H]3C[C@H]3C)ccc12` (stereo partly drawn) [Example 24, N-(1-amino-4b-hydroxy-7-((1S,2R)-2-methylcyclopropyl)-10-oxo-4b,10-dihydro-9bH-indeno[1,2-b]benzofuran-9b-yl)-3-methyl-5-((4-methylpiperazin-1-yl)sulfonyl)-1H-pyrrole-2-carboxamide], the EC50 in the data set on HRV B14 worked out at 0.016 µM; in the data set with HRV A16, 0.039 µM; in the data set on HRV A1B it was 0.016 µM; with HRV A29, 0.037 µM; in the data set on C15_C3 REPLICON it was 0.34 µM. The CC50 in data set [1] was found to be 28.4 µM.
On to `C[C@H](c1ccc2c(c1)O[C@]1(O)c3cccc(N)c3C(=O)[C@]21NC(=O)c1cccc(O)n1)C1CC1` [Example 3, N-((4bR,9bR)-1-amino-7-((S)-1-cyclopropylethyl)-4b-hydroxy-10-oxo-4b,10-dihydro-9bH-indeno[1,2-b]benzofuran-9b-yl)-6-hydroxypicolinamide], for which the EC50 in the data set with HRV B14 worked out at 0.016 µM; in the data set on HRV A16, 0.057 µM; in the data set with HRV A1B it was 0.033 µM; with HRV A29, 0.02 µM; in the data set with C15_C3 REPLICON, 4.81 µM. Also, the CC50 in data set [1] was found to be 32.3 µM.
On to `Cc1cc(S(=O)(=O)N2CCN(C)CC2)[nH]c1C(=O)NC12C(=O)c3c(N)cccc3C1(O)Oc1cc(C(C)C)ccc12` (stereo not drawn) [Example 13, N-(1-amino-4b-hydroxy-7-isopropyl-10-oxo-4b,10-dihydro-9bH-indeno[1,2-b]benzofuran-9b-yl)-3-methyl-5-((4-methylpiperazin-1-yl)sulfonyl)-1H-pyrrole-2-carboxamide], for which the concentration giving a half-maximal response (EC50) was determined as 0.016 µM in the data set on HRV B14; 0.027 µM in the data set with HRV A16; 0.016 µM with HRV A1B; 0.05 µM in the data set on HRV A29; 0.682 µM in the data set with C15_C3 REPLICON. For the same compound, in data set [1], the CC50 was 32.1 µM.
Turning to `Cc1c(S(C)(=O)=O)c[nH]c1C(=O)N[C@]12C(=O)c3c(N)cccc3[C@@]1(O)Oc1cc([C@H]3C[C@@H]3C)ccc12` [Example 28, N-((4bR,9bR)-1-amino-4b-hydroxy-7-((1S,2S)-2-methylcyclopropyl)-10-oxo-4b,10-dihydro-9bH-indeno[1,2-b]benzofuran-9b-yl)-3-methyl-4-(methylsulfonyl)-1H-pyrrole-2-carboxamide], the EC50 in the data set on HRV B14 turned out to be 0.016 µM; in the data set on HRV A16, 0.16 µM; with HRV A1B, 0.037 µM; in the data set on HRV A29, 0.045 µM; in the data set with C15_C3 REPLICON, 1.85 µM. The CC50 in data set [1] was found to be 19.8 µM.
Turning to `Cc1cc(S(=O)(=O)N2CCN(C)CC2)[nH]c1C(=O)N[C@]12C(=O)c3c(N)cccc3[C@@]1(O)Oc1cc(OC(C)C)ccc12` (single isomer, unassigned) [Example 19], the EC50 in the data set on HRV A16 was 0.022 µM; in the data set on HRV A1B, 0.016 µM; with HRV A29, 0.046 µM; in the data set on C15_C3 REPLICON it was 0.876 µM. Further, the CC50 in data set [1] is 48.3 µM.
For `Cc1c(S(C)(=O)=O)c[nH]c1C(=O)N[C@]12C(=O)c3c(N)cccc3[C@@]1(O)Oc1cc([C@@H]3C[C@H]3C)ccc12` [Example 1, N-((4bR,9bR)-1-amino-4b-hydroxy-7-((1R,2R)-2-methylcyclopropyl)-10-oxo-4b,10-dihydro-9bH-indeno[1,2-b]benzofuran-9b-yl)-3-methyl-4-(methylsulfonyl)-1H-pyrrole-2-carboxamide], the concentration giving a half-maximal response (EC50) was determined as 0.016 µM with HRV B14, 0.228 µM in the data set on HRV A16, 0.071 µM with HRV A29 and 4 µM in the data set with C15_C3 REPLICON. In addition, the CC50 in data set [1] amounted to 34.7 µM.

A word on the EC50: it is the midpoint of the concentration-response curve. Broadly, the CC50 is the concentration giving 50% cytotoxicity.

Source of the values: patent US12286423B2, “Antiviral 1,3-di-oxo-indene compounds” (Novartis AG, priority 2020, dated 2025).
